{"source": "patent US5998596A", "about": "“Inhibition of protein kinase activity by aptameric action of oligonucleotides” (The United States of America as represented by the …)", "key": {"[1]": {"test_system": "cellular phosphotyrosine content of K562 cells", "test": "Western analysis of total cellular phosphotyrosine content after electroporation of K562 cells", "type": "cell-based, human", "settings": "K562 cells electroporated with 100 μM ODN, one hour later", "experimental": "One hundred micrograms of protein from cell lysates were separated on a 7% SDS polyacrylamide gel. Transfer was performed overnight at 50 volts, 4° C., in a 0.2 M glycine, 25 mM Tris, pH 8.3, 0.15% SDS, 20% methanol buffer, onto […] nitrocellulose (Schleicher and Schuell Inc.). For cellular phosphotyrosine blots, Western probing was performed as described previously, with modifications (SARTOR, et al, 1991). Briefly, membranes were blocked for 2 hours with 5% albumin in TTBS (20 mM Tris HCL, pH 7.6; 0.05% Tween 20; 0.9% sodium chloride), probed for 1 hour with antiphosphotyrosine antibody (Upstate Biotechnology Inc., Lake Placid, N.Y.) diluted 1:500 in TTBS, followed by rabbit anti-mouse antibody (Cappel Research Products) and then [^125 I] protein A Sepharose (Amersham Corp., Arlington Heights, Ill.). Membranes were exposed to Kodak X-OMAT AR film overnight at -70° C. with intensifying screens.\nElectroporation was performed as described (40). Briefly, 1-5×10^6 cells in 1 ml of RPMI 1640 with 10% fetal calf serum were placed into 0.4 cm gap electroporation chambers and electroporated with a Cell-Porator Electroporation System 1 (all from GIBCO BRL, Grand Island, N.Y.) at 800 microfarrads, 300 volts, at room temperature. Cells were then incubated at 37° C. for 1 hour before manipulation.\nIn K562 cells p210^bcr-abl is a major kinase responsible for protein tyrosine phosphorylation (38, 39). Changes in enzyme activity are therefore reflected by changes in cellular phosphotyrosine content."}, "[2]": {"test_system": "p210^bcr-abl kinase", "test": "Immunoprecipitation kinase assay of p210bcr-abl (autophosphorylation), ODN added to kinase reaction", "type": "biochemical, human", "settings": "for Percent Remaining Activity of p210^bcr-abl kinase relative to control: ODN 1 μM, phosphorothioate capped, mean ± SE of three experiments; for inhibition of p210^bcr-abl kinase activity in vitro (in words): ODN at 1 μM added to the immunoprecipitated enzyme", "experimental": "The p210^bcr-abl kinase, src kinase and cdc-2 kinase were immunoprecipitated from K562 cells. The p145^abl kinase was immunoprecipitated from PC3M cells, PDGF receptor kinase from 3T3 cells, and EGF receptor kinase from A431 cells. MAP kinase was utilized as a pure protein and lck kinase was immunoprecipitated from peripheral blood lymphocytes of a normal volunteer.\nCells were washed in phosphate buffered saline (PBS) and 0.5-5×10^6 cells were solubilized in 1 ml of the specified cell lysis buffers. Unless otherwise stated, all cell lysis buffers contained the following protease inhibitors: 20 μg/ml leupeptin, 1 μg/ml aprotinin, and 1 mM phenylmethylsulfonylfluroide. For p210^bcr-abl and […] immunoprecipitation, cells were lysed with ABL lysis buffer (25 mM imidazole, pH 7.2, 0.5% NP40, 50 mM NaCl, 1 mM Na3 VO4) and lysates were clarified at 14,000 g. 4° C. for 30 minutes. Cell lysis for all other proteins was performed according to the references describing the various immunoprecipitation kinase assays.\n(§1) Immunoprecipitation kinase assays of p210^bcr-abl p145^abl were performed as described, with modifications (15). Briefly, for p210^bcr-abl, 1 μg of anti-bcr antibody (clone 7C6, Oncogene Science, Uniondale, N.Y.) was added to lysates prepared from 0.5-1×10^6 K562 cells. For p145^abl, 1 μg of anti-c-abl antibody (clone 24-21), which binds to the C-terminal domain of p145^abl, was added to lysates prepared from 5×10^6 PC3M cells. After incubating 1 hour at 4° C., complexes were precipitated by incubating with protein A-Sepharose coated with rabbit anti-mouse immunoglobulin (Cappel Research Products, Durham, N.C.) for 30 minutes. The complexes were then washed as follows: ABL lysis buffer×2, PBS×1, and ABL assay buffer×1 (24 mM imidazole, pH 7.2, 1 mg/ml bovine serum albumin, and 10 mM MnCl). For p145^abl assays ABL assay buffer contained 20 mM MnCl. To access the activity of p210^bcr-abl on substrate phosphorylation, acid inactivated enolase (Sigma Chemical Co., St. Louis, Mo.) was added as described (15).\n(§2) ODNs were added to kinase reaction buffers not more than 5 minutes prior to the addition of ATP. Reactions were initiated by the addition of [γ^-32 P] ATP (3000 Ci/mmole; Amersham Corp., Arlington Heights, Ill.) and quenched by the addition of 5× gel loading buffer and heating to 95° C. Kinase reactions were run for 1-10 minutes at room temperature, except for EGFR, p145^abl, and MAP kinase, which were run at 30° C. The products were then electrophoresed on SDS-polyacrylamide gels: 7% for p210^bcr-abl, EGFR, and PDGFR, 8% for p145^abl, 10% for src, lck, and cdc-2 kinase, and 12% for MAP kinase. Gels were dried and reaction products were visualized by direct autoradiography at -70° C. with Kodak X-OMAT AR film. To determine the inhibitory concentration 50, i.e., the concentration required to inhibit enzyme activity by 50% (IC50) and Ki values, gel slices containing the band of interest were excised and analyzed by Cerenkov counting."}, "[3]": {"test_system": "K562 cells", "test": "K562 colony formation in soft agar", "type": "cell-based, human", "settings": "50 μM ODN, two weeks, not electroporated", "experimental": "K562, NIH 3T3, and A431 cells were purchased from the American Type Culture Collection (Rockville, Md.). PC3M prostate cancer cells were a generous gift from J. Trepel (National Institutes of Health, Bethesda, Md.). K562 and PC3M cells were cultured in RPMI 1640 with 10% heat-inactivated fetal bovine serum (FBS; GIBCO BRL, Grand Island, N.Y.) while NIH 3T3 and A431 cells were cultured in Dulbecco's modified Eagle's medium (Biofluids, Rockville, Md.) with 10% heat inactivated FBS. Cells were maintained at 37° C., 6% carbon dioxide with biweekly media changes. For soft agar cloning, cells were suspended in 0.3% low melting temperature agarose (SeaPlaque FMC BioProducts, Rockland, Me.) in RPMI 1640 with 10% total calf serum and maintained as above.\nTo evaluate the effects of these various ODNs of K562 cell growth, both growth in liquid culture and growth in soft agar were examined. […] Cells were electroporated in the presence of 50 μM ODN and kept in liquid culture. For soft agar cloning experiments, cells were not electroporated, but were grown in the presence of 50 μM ODN for two weeks. Liquid cultures were replenished with fresh medium containing 50 μM ODN. Two weeks following incubation in liquid culture, the number of trypan blue-excluding cells was determined. No effect on cell growth in liquid culture could be observed with any ODN tested (data not shown)."}, "[4]": {"test_system": "p210^bcr-abl kinase in K562 cells", "test": "Immunoprecipitation kinase assay of p210bcr-abl from ODN treated K562 cells", "type": "cell-based, human", "settings": "K562 cells incubated 3 days with 50 μM ODN, washed", "experimental": "as §1, §2\nThe effects of ODN1 on a cellular system were assessed. […] After 3 days, cells were washed and p210^bcr-abl kinase activity was measured. […] Neither cellular p210^bcr-abl protein content nor cell growth was affected by ODN treatment (data not shown)."}, "[5]": {"test_system": "MAP kinase", "test": "inhibition", "settings": "PS, two linkages at each of 5' and 3' ends, rest phosphodiester; 30 C"}, "[6]": {"test_system": "PDGF receptor (PDGFR)", "test": "inhibition", "settings": "PS, two linkages at each of 5' and 3' ends, rest phosphodiester; autophosphorylation"}, "[7]": {"settings": "listed as BCR-AS all-phosphorothioate"}}, "note": "Entries after “also recorded” stand apart in the source; their conditions may differ. In the oligonucleotide strings, read from the 5' end, every base follows the letter of its sugar. An asterisk marks phosphorothioate; unmarked linkages are phosphodiester. Other units and linkages are bracketed, terminal groups are in braces. A string of capitals states the bases alone. d = 2'-deoxy (DNA)"}
{"substance": "5' CCGACCACTTCCGAGTACTAG-3' (chemistry not given here) [ABL-1bSCR, the scrambled version of ABL-1bAS]", "values": [{"measurement": "total cellular protein phosphotyrosine content", "setting": "[1]", "value": "less marked effects"}]}
{"substance": "5' GGCCGTGCAGCTCGCACCGGC 3' (chemistry not given here) [ODN1C, scrambled version of ODN1]", "values": [{"measurement": "Percent Remaining Activity of p210^bcr-abl kinase relative to control", "setting": "[2]", "value": "74 ± 15", "unit": "%"}]}
{"substance": "5' GGCGGCCGCGCTGCAACCCGT 3' (chemistry not given here) [ODN1A, scrambled version of ODN1]", "values": [{"measurement": "Percent Remaining Activity of p210^bcr-abl kinase relative to control", "setting": "[2]", "value": "42 ± 6.9", "unit": "%"}]}
{"substance": "5' GGCGGCGGCGGCGGCGGCGGC 3' (chemistry not given here) [SEQ ID NO.: 11, 21mer consisting of seven tandem GGC repeats]", "values": [{"measurement": "inhibition of p210^bcr-abl kinase activity in vitro (in words)", "setting": "[2]", "value": "inhibitory activity equivalent to ODN1"}]}
{"substance": "5' TCCGCGAACCCGGTGCGCCGG 3' (chemistry not given here) [ODN1D, scrambled version of ODN1 / BCR-AS]", "values": [{"measurement": "total cellular protein phosphotyrosine content", "setting": "[1]; listed as BCR-SCR", "value": "effectively lowered protein phosphotyrosine content; also recorded: reduced protein phosphotyrosine content"}, {"measurement": "Percent Remaining Activity of p210^bcr-abl kinase relative to control", "setting": "[2]", "value": "79 ± 79", "unit": "%"}, {"measurement": "inhibition of p210^bcr-abl kinase activity in vitro (in words)", "setting": "[2]", "value": "does not inhibit kinase activity"}, {"measurement": "ability to form colonies in soft agar", "setting": "[3]", "value": "inhibited the ability of these cells to form colonies in soft agar"}, {"measurement": "p210^bcr-abl kinase activity of ODN treated K562 cells", "setting": "[4]", "value": "did not inhibit kinase activity"}]}
{"substance": "5' TGCCCAACGTCGCGCCGGCGG 3' (chemistry not given here) [ODN1B, scrambled version of ODN1]", "values": [{"measurement": "Percent Remaining Activity of p210^bcr-abl kinase relative to control", "setting": "[2]", "value": "59 ± 6.4", "unit": "%"}]}
{"substance": "5'-CGCTGAAGTTTTGAACTCTGC-3' (chemistry not given here) [B/A-AS, spans the bcr-abl fusion region, complementary to 11 bcr and 10 abl nucleotides of the mature fusion transcript]", "values": [{"measurement": "total cellular protein phosphotyrosine content", "setting": "[1]", "value": "less marked effects; also recorded: no effect"}, {"measurement": "ability to form colonies in soft agar", "setting": "[3]", "value": "failed to effect the cloning ability of the cells"}, {"measurement": "p210^bcr-abl kinase activity of ODN treated K562 cells", "setting": "[4]", "value": "inhibited kinase activity"}]}
{"substance": "5'-GTCCACCATGGCGCGGCCGGC-3' [ODN1 2'-methoxy modified sugars] (2'-O-methyl modified sugars, pattern not given here)", "values": [{"measurement": "inhibition of p210^bcr-abl kinase activity in vitro (in words)", "setting": "[2]", "value": "least effective"}]}
{"substance": "5'-GTCCACCATGGCGCGGCCGGC-3' [ODN1 all phosphodiester] (unmodified DNA)", "values": [{"measurement": "total cellular protein phosphotyrosine content", "setting": "[1]; listed as BCR-AS phosphodiester", "value": "equally effective"}, {"measurement": "inhibition of p210^bcr-abl kinase activity in vitro (in words)", "setting": "[2]", "value": "intermediate potencies"}]}
{"substance": "5'-GTCCACCATGGCGCGGCCGGC-3' [ODN1 all phosphorothioate] (DNA dG*dT*dC*dC*dA*dC*dC*dA*dT*dG*dG*dC*dG*dC*dG*dG*dC*dC*dG*dG*dC)", "values": [{"measurement": "total cellular protein phosphotyrosine content", "setting": "[1]; [7]", "value": "no effect"}, {"measurement": "inhibition of p210^bcr-abl kinase activity in vitro (in words)", "setting": "[2]", "value": "most potent inhibitor"}, {"measurement": "inhibition of p210^bcr-abl kinase activity in vitro (in words)", "setting": "[2]; [7]", "value": "most effective inhibitor"}]}
{"substance": "5'-TCCAGGCTGCTGCCCCATAAA-3' (chemistry not given here) [ABL-1bAS, complementary to nucleotides -3 to +18 of the abl lb mRNA]", "values": [{"measurement": "total cellular protein phosphotyrosine content", "setting": "[1]", "value": "less marked effects"}]}
{"substance": "5'-TGTACGTCCGGCTTACTAGTA-3' (chemistry not given here) [B/A-SCR, scrambled version of the B/A ODN]", "values": [{"measurement": "total cellular protein phosphotyrosine content", "setting": "[1]", "value": "effectively lowered protein phosphotyrosine content; also recorded: reduced protein phosphotyrosine content"}, {"measurement": "ability to form colonies in soft agar", "setting": "[3]", "value": "inhibited the ability of these cells to form colonies in soft agar"}, {"measurement": "p210^bcr-abl kinase activity of ODN treated K562 cells", "setting": "[4]", "value": "did"}]}
{"substance": "GGCG", "values": [{"measurement": "inhibition of p210^bcr-abl kinase activity in vitro (in words)", "setting": "[2]", "value": "no inhibitory activity"}]}
{"substance": "GTCCACCATGGCGCGGCCGGC [ODN1 (BCR-AS), phosphorothioate capped]", "values": [{"measurement": "IC50", "setting": "[5]", "value": "> 100", "unit": "µM"}, {"measurement": "IC50", "setting": "[6]", "value": 4.4, "unit": "µM"}]}
